“Also recorded” adds a separate entry of the source.
Experiments:
[1] = system: Aβ monomers and Aβ oligomers in the brain; assay: Aβ in the brain after amylin treatment, western blots and ELISA assays; type: in vivo; conditions: 5XFAD mice; amylin treatment compared to saline
Text: Changes of Aβ in the brain were examined after the amylin treatment in 5XFAD mice using both western blots and ELISA assays. […] Thus, without wishing to be bound or limited by theory, the benefits of memory improvement from amylin treatment is mediated, in part, by 1) removing Aβ from the AD brain into blood and 2) reducing the amount of Aβ oligomers in the brain.

[2] = system: 5XFAD mice; assay: Y-water Maze test after long-term amylin treatment; type: in vivo
Procedure: 5XFAD mice were treated with either i.p amylin or saline for 8 weeks followed by Y-water maze test. The average latency of recognizing the object after the training was calculated for each group (n=10) and statistical significance for the comparison is shown.

[3] = system: serum Aβ1-40 and Aβ1-42; assay: amylin challenge test, serum Aβ, 5XFAD mice; type: in vivo
Text: The higher the levels of Aβ and the number of amyloid plaques in the brain, the higher fold of serum Aβ was increased after the peripheral amylin challenge.

[4] = system: Aβ1-40 and Aβ1-42 in blood; assay: amylin challenge test, blood Aβ, APP Dutch mutation mouse line; type: in vivo, APP mouse line which carries the APP Dutch mutation
[5] = system: serum Aβ1-40 and Aβ1-42; assay: amylin challenge test: i.p. injection, serum Aβ1-40 and Aβ1-42 by ELISA, Tg2576 mice; type: in vivo; conditions: 5 minutes
Procedure: (§1) TgAPP2576 mice (n=5) and control mice (n=5) were used. Intraperitoneal injection of amylin (20 mg/kg) was performed, and blood was drawn and collected at pre-injection, after injection at 5 minutes, 1 hr and 24 hrs. Serum Aβ1-40 and Aβ1-42 were measured using ELISA assay. The results of serum Aβ1-40 and Aβ1-42 for each individual mouse are shown. This experiment has been repeated twice for each mouse and similar results were obtained.
(§2) As shown at FIGS. 3A-3E, amylin injection removes Aβ from the brain into blood in APP transgenic mice. Both the Tg2576 and wild type (WT) mice were used for the amylin challenge test. FIGS. 3A-3B. Amylin (20 mg/kg) was intraperitoneally injected (i.p), and blood was drawn and collected at the time points of pre-injection (the control n=7; Tg2576 n=11), after injection 5 minutes (the control n=7; Tg2576 n=6), 1 hr (the control n=7; Tg2576 n=10) and 24 hrs (the control n=7; Tg2576 n=11). Serum Aβ1-40 and Aβ1-42 were measured by using the ELISA assays. FIGS. 3C-3E. The levels of serum Aβ1-40 and Aβ1-42 at pre-injection of amylin were treated as 1 s, and the relative fold increase after amylin injection at each time point was shown and compared with the pre-injection level by using two-way ANOVA. ***p<0.01; **p<0.05 and *p<0.10.
(§3) FIGS. 6A-6D depict amylin injection and serum Aβ in mice. Both control mice (wild type) and Tg2576 mice were used for the amylin injection test. Amylin (20 mcg/kg) was intraperitoneally injected (i.p), and blood was drawn at the following time points: at baseline or pre-injection (controls n=7; Tg2576 n=11), at 5 minutes (controls n=7; Tg2576 n=6), at 1 hr (controls n=7; Tg2576 n=10) and at 24 hrs (controls n=7; Tg2576 n=11) post injection. Serum Aβ1-40 and Aβ1-42 were measured by using the ELISA assays. The levels of serum Aβ1-40 and Aβ1-42 at pre-injection of amylin were treated as 1 s, and the relative fold increase after amylin injection at each time point was shown and compared with the pre-injection level by using a two-way ANOVA. ***p<0.01; **p<0.05 and *p<0.10.
(§4) Validation: We used the APP transgenic mice (Tg2576) to conduct amylin challenge test. Tg2576 mice have Aβ deposits in the brain like the AD pathology. After intraperitoneal injection of amylin (20 mg/kg), Tg2576 mice (n=5) presented with the increase of serum Aβ40 and Aβ42 at 5 minutes, 1 hr and 24 hrs compared to the pre-injection levels of serum Aβ40 and Aβ42.

[6] = system: mouse models; assay: daily dosing in mouse models, memory functions; type: in vivo, mice
[7] = Banks and Kastin, 1998; cited from earlier work
[8] = system: serum Aβ1-40 and Aβ1-42; assay: amylin challenge test: i.p. injection, serum Aβ1-40 and Aβ1-42 by ELISA, control (wild type) mice; type: in vivo
Procedure: as §1, §2, §3
FIG. 7 depicts results of i.p injection of pramlintide, an analog of amylin, into one Tg2576 mouse (A1) and two wild type mice (N1 and N2) and comparison of their serum Aβ40 level before and after the injection.
as §4

[9] = system: 5XFAD mice; assay: Y Maze Spontaneous Alternation test after long-term amylin treatment; type: in vivo; conditions: 5XFAD mice aged 2 months; amylin 20 mcg/kg i.p. daily for 10 weeks vs. saline; n=8
Procedure: Since amylin can enhance the removal of Aβ out of the brain into blood, it was tested whether amylin and its analogs can be a treatment for AD. Thus, we treated 5XFAD mice aged 2 months old with i.p injection of amylin (20 mcg/kg) vs. saline (n=8 in each group) daily for 10 weeks, and then conducted Y Maze Spontaneous Alternation test for measuring the willingness of mice to explore new environments.

[10] = Tg2576 mice (n=5), amylin 20 mg/kg intraperitoneal, 1 hr and 24 hrs
[11] = Tg2576 mice, single amylin injection 20 mcg/kg i.p., 1 hr, 24 hrs
[12] = control mice (n=5), amylin 20 mg/kg intraperitoneal
[13] = control mice (wild type), single amylin injection 20 mcg/kg i.p.

## amylin (KCNTATCATQRLANFLVHSSNNFGAILSSTNVGSNTY; listed as Homo sapiens)
[1]
  amount of Aβ monomers in the brain: did not change
  amount of Aβ oligomers in the brain: significantly reduced
[2]; 5XFAD mice, i.p. amylin or saline for 8 weeks, n=10
  Y-water maze, average latency of recognizing the object after the training: improves; also recorded: improved memory impairment
[2]; APP transgenic mice, long-term amylin treatment vs placebo
  time for acquisition (escaping onto the platform): significantly reduced
[2]; APP transgenic mice, long-term amylin treatment vs placebo, at 30 minutes and at 3 days, p<0.02
  memory retention: time to find the platform: shortening the time to find the platform
[3]; 5XFAD mice aged 3 months, i.p. injection of amylin
  Aβ1-42 in serum: increased level
[3]; different aged 5XFAD mice
  serum Aβ levels after peripheral amylin injection: increase of serum Aβ levels reflecting the amounts of Aβ in the brains
[4]
  Aβ1-40 in blood: surge
[5]; [10]
  serum Aβ40 compared to the pre-injection level: increase
  serum Aβ42 compared to the pre-injection level: increase
[5]; [11]
  serum Aβ40 compared to the pre-injection level: surges
  serum Aβ42 compared to the pre-injection level: surges
[6]
  memory functions / cognition: increased memory functions
[7]
  passage through the brain blood barrier (BBB) into the brain: freely passes through the brain blood barrier (BBB)
[8]; [12]
  serum Aβ40 compared to the pre-injection level: did not have these surges
  serum Aβ42 compared to the pre-injection level: did not have these surges
[8]; [13]
  serum Aβ40 compared to the pre-injection level: none of the control mice (wild type), had surges
  serum Aβ42 compared to the pre-injection level: none of the control mice (wild type), had surges
[9]
  % alternation rate: significantly increased
